In patent publication US10835542B2, “9-aminomethyl minocycline compounds and use thereof in treating community-acquired bacterial pneumonia (CABP)” (Paratek Pharmaceuticals, Inc., priority 2016, dated 2020):
“And” between values parts separate entries of the source, which are not always exact repeats. Identical values can stand only once. Like-named read-outs stand apart in the source and are kept apart here.

How the values were obtained:
[1] = tested on: Streptococcus pneumoniae; test: Mouse model of lower respiratory tract infection; format: in vivo; conditions: infection caused by Streptococcus pneumoniae
[2] = tested on: Community-Acquired Bacterial Pneumonia (CABP); test: Phase 3 CABP study: Investigator's Assessment of Clinical Response at PTE; format: in vivo, human
[3] = tested on: Haemophilus influenzae; test: Mouse model of lower respiratory tract infection; format: in vivo; conditions: infection caused by Haemophilus influenzae
[4] = tested on: Escherichia coli; test: Clinical success at PTE by baseline pathogen, microITT; format: in vivo, human; conditions: N1 = 6 (Compound 1), 7 (Moxifloxacin)
[5] = tested on: Streptococcus pneumoniae; format: in vivo, human; conditions: PTE, microITT
[6] = tested on: Community-Acquired Bacterial Pneumonia (CABP); test: Phase 3 CABP study: Early Clinical Response (72-120 h after first dose); format: in vivo, human; conditions: ITT
[7] = tested on: Moraxella catarrhalis; test: Clinical success at PTE by baseline pathogen, microITT; format: in vivo, human; conditions: N1 = 4 (Compound 1), 1 (Moxifloxacin)
[8] = tested on: Mycoplasma pneumoniae; test: as above; format: in vivo, human; conditions: N1 = 70 (Compound 1), 57 (Moxifloxacin)
[9] = tested on: Staphylococcus aureus; format: in vivo, human; conditions: PTE, microITT
[10] = Phase 1 multiple oral dose study: urine PK; format: in vivo, human
Procedure: Urine samples were only collected from a subset of subjects because analysis of urine PK was added by an amendment to the study protocol after the study was already underway.
Additional parameters Ae0-4, Ae4-8, Ae8-12, Ae12-24, and Ae0-24 were also calculated.

[11] = tested on: cSSSI; test: Phase 2 and Phase 3 studies in complicated skin and skin structure infection (cSSSI); format: in vivo, human
[12] = CE-PTE, PORT Risk Class II as randomized
[13] = CE-PTE, PORT Risk Class III as randomized
[14] = CE-PTE, PORT Risk Class III/IV as randomized
[15] = CE-PTE, PORT Risk Class IV as randomized
[16] = CE-PTE, actual PORT Risk Class II
[17] = CE-PTE, actual PORT Risk Class III
[18] = CE-PTE, actual PORT Risk Class III/IV
[19] = CE-PTE, actual PORT Risk Class IV
[20] = ITT, PORT Risk Class II as randomized
[21] = ITT, PORT Risk Class III as randomized
[22] = ITT, PORT Risk Class III/IV as randomized
[23] = ITT, PORT Risk Class IV as randomized
[24] = ITT, actual PORT Risk Class III
[25] = ITT, actual PORT Risk Class III/IV

CN(C)c1cc(CNCC(C)(C)C)c(O)c2c1C[C@H]1C[C@H]3[C@H](N(C)C)C(O)=C(C(N)=O)C(=O)[C@@]3(O)C(O)=C1C2=O [Compound 1, 9-[(2,2-dimethyl-propylamino)-methyl]-minocycline]
efficacy in mouse model of lower respiratory tract infection [1]: effective | Difference (95% CI) in Overall Clinical Success rate at PTE, Compound 1 minus moxifloxacin ([2]; CE-PTE): 2.5% and 2.5 (−1.7, 6.8) % | Overall clinical response at PTE: Clinical Failure ([2]; CE-PTE): 24 (7.1) n (%) | Overall clinical response at PTE: Clinical Success ([2]; CE-PTE): 316 (92.9) n (%) | Clinical Failure at PTE [2, 12]: 3 (6.8) n (%) | Clinical Success at PTE [2, 12]: 41 (93.2) n (%) | Difference (95% CI) in clinical success at PTE [2, 12]: 1.5 (−11.2, 13.9)^[4] % | Clinical Failure at PTE [2, 13]: 14 (6.5) n (%) | Clinical Success at PTE [2, 13]: 202 (93.5) n (%) | Difference (95% CI) in clinical success at PTE [2, 13]: 2.5 (−2.7, 7.8)^[4] % | Clinical Failure at PTE [2, 14]: 21 (7.1) n (%) | Clinical Success at PTE [2, 14]: 275 (92.9) n (%) | Difference (95% CI) in clinical success at PTE [2, 14]: 2.7 (−1.9, 7.3)^[4] % | Clinical Failure at PTE [2, 15]: 7 (8.8) n (%) | Clinical Success at PTE [2, 15]: 73 (91.3) n (%) | Difference (95% CI) in clinical success at PTE [2, 15]: 3.0 (−6.8, 12.8)^[4] % | Clinical Failure at PTE [2, 16]: 2 (4.4) n (%) | Clinical Success at PTE [2, 16]: 43 (95.6) n (%) | Difference (95% CI) in clinical success at PTE [2, 16]: 5.8 (−6.1, 18.1)^[4] % | Clinical Failure at PTE [2, 17]: 13 (6.4) n (%) | Clinical Success at PTE [2, 17]: 191 (93.6) n (%) | Difference (95% CI) in clinical success at PTE [2, 17]: 1.5 (−3.6, 6.9)^[4] % | Clinical Failure at PTE [2, 18]: 22 (7.5) n (%) | Clinical Success at PTE [2, 18]: 273 (92.5) n (%) | Difference (95% CI) in clinical success at PTE [2, 18]: 2.0% and 2.0 (−2.6, 6.6)^[4] % | Clinical Failure at PTE [2, 19]: 9 (9.9) n (%) | Clinical Success at PTE [2, 19]: 82 (90.1) n (%) | Difference (95% CI) in clinical success at PTE [2, 19]: 2.9 (−6.7, 12.5)^[4] % | Difference (95% CI) in Overall Clinical Success rate at PTE, Compound 1 minus moxifloxacin ([2]; ITT): 2.5% and 2.5 (−2.4, 7.4) % | Overall clinical response at PTE: Clinical Failure ([2]; ITT): 32 (8.3) n (%) | Overall clinical response at PTE: Clinical Failure or Indeterminate ([2]; ITT): 48 (12.4) n (%) | Overall clinical response at PTE: Clinical Success ([2]; ITT): 338 (87.6) n (%) | Overall clinical response at PTE: Indeterminate ([2]; ITT): 16 (4.1) n (%) | Clinical Failure at PTE [2, 20]: 6 (10.7) n (%) | Clinical Failure or Indeterminate at PTE [2, 20]: 11 (19.6) n (%) | Clinical Success at PTE [2, 20]: 45 (80.4) n (%) | Difference (95% CI) in clinical success at PTE [2, 20]: −3.6 (−18.2, 11.0)^[4] % | Indeterminate at PTE [2, 20]: 5 (8.9) n (%) | Clinical Failure at PTE [2, 21]: 17 (7.1) n (%) | Clinical Failure or Indeterminate at PTE [2, 21]: 24 (10.0) n (%) | Clinical Success at PTE [2, 21]: 217 (90.0) n (%) | Difference (95% CI) in clinical success at PTE [2, 21]: 3.4 (−2.4, 9.4)^[4] % | Indeterminate at PTE [2, 21]: 7 (2.9) n (%) | Clinical Failure at PTE [2, 22]: 26 (7.9) n (%) | Clinical Failure or Indeterminate at PTE [2, 22]: 37 (11.2) n (%) | Clinical Success at PTE [2, 22]: 293 (88.8) n (%) | Difference (95% CI) in clinical success at PTE [2, 22]: 3.5 (−1.6, 8.7)^[4] % | Indeterminate at PTE [2, 22]: 11 (3.3) n (%) | Clinical Failure at PTE [2, 23]: 9 (10.1) n (%) | Clinical Failure or Indeterminate at PTE [2, 23]: 13 (14.6) n (%) | Clinical Success at PTE [2, 23]: 76 (85.4) n (%) | Difference (95% CI) in clinical success at PTE [2, 23]: 3.4 (−7.5, 14.0)^[4] % | Indeterminate at PTE [2, 23]: 4 (4.5) n (%) | Clinical Failure at PTE ([2]; ITT, actual PORT Risk Class II): 5 (8.8) n (%) | Clinical Failure or Indeterminate at PTE ([2]; ITT, actual PORT Risk Class II): 10 (17.5) n (%) | Clinical Success at PTE ([2]; ITT, actual PORT Risk Class II): 47 (82.5) n (%) | Difference (95% CI) in clinical success at PTE ([2]; ITT, actual PORT Risk Class II): −1.5 (−15.7, 12.8)^[4] % | Indeterminate at PTE ([2]; ITT, actual PORT Risk Class II): 5 (8.8) n (%) | Clinical Failure at PTE [2, 24]: 16 (7.0) n (%) | Clinical Failure or Indeterminate at PTE [2, 24]: 21 (9.3) n (%) | Clinical Success at PTE [2, 24]: 206 (90.7) n (%) | Difference (95% CI) in clinical success at PTE [2, 24]: 2.8 (−3.0, 8.7)^[4] % | Indeterminate at PTE [2, 24]: 5 (2.2) n (%) | Clinical Failure at PTE [2, 25]: 27 (8.2) n (%) | Clinical Failure or Indeterminate at PTE [2, 25]: 38 (11.6) n (%) | Clinical Success at PTE [2, 25]: 291 (88.4) n (%) | Difference (95% CI) in clinical success at PTE [2, 25]: 3.3% and 3.3 (−1.9, 8.5)^[4] % | Indeterminate at PTE [2, 25]: 11 (3.3) n (%) | Clinical Failure at PTE ([2]; ITT, actual PORT Risk Class IV): 11 (10.8) n (%) | Clinical Failure or Indeterminate at PTE ([2]; ITT, actual PORT Risk Class IV): 17 (16.7) n (%) | Clinical Success at PTE ([2]; ITT, actual PORT Risk Class IV): 85 (83.3) n (%) | Indeterminate at PTE ([2]; ITT, actual PORT Risk Class IV): 6 (5.9) n (%) | efficacy in mouse model of lower respiratory tract infection [3]: effective | Clinical Success n (%) [4]: 4 (66.7) n (%) | Clinical Success n (%) ([5]; Streptococcus pneumoniae MDRSP, N1 = 7 (Compound 1), 6 (Moxifloxacin)): 7 (100.0) n (%) | Clinical Success n (%) ([5]; Streptococcus pneumoniae Macrolide Resistant, N1 = 10 (Compound 1), 5 (Moxifloxacin)): 10 (100.0) n (%) | Clinical Success n (%) ([5]; Streptococcus pneumoniae PSSP, N1 = 26 (Compound 1), 22 (Moxifloxacin)): 23 (88.5) n (%) | Clinical Success n (%) ([5]; baseline pathogen Streptococcus pneumoniae, N1 = 43 (Compound 1), 34 (Moxifloxacin)): 37 (86.0) n (%) | Difference (95% CI) in Early Clinical Success rate, Compound 1 minus moxifloxacin [6]: −1.6% and −1.6 (−7.1, 3.8) % | Early Clinical Response: Clinical Failure ([6]; 72-120 h after first infusion): 49 (12.7) n (%) | Early Clinical Response: Clinical Failure or Indeterminate ([6]; 72-120 h after first infusion): 73 (18.9) n (%) | Early Clinical Response: Clinical Success ([6]; 72-120 h after first infusion): 313 (81.1) n (%) | Early Clinical Response: Indeterminate ([6]; 72-120 h after first infusion): 24 (6.2) n (%) | Clinical Success n (%) [7]: 4 (100.0) n (%) | Clinical Success n (%) [8]: 66 (94.3) n (%) | Clinical Success n (%) ([9]; Staphylococcus aureus MRSA, N1 = 0 (Compound 1), 1 (Moxifloxacin)): 0 n (%) | Clinical Success n (%) ([9]; Staphylococcus aureus MSSA, N1 = 11 (Compound 1), 10 (Moxifloxacin)): 8 (72.7) n (%) | Clinical Success n (%) ([9]; baseline pathogen Staphylococcus aureus, N1 = 11 (Compound 1), 11 (Moxifloxacin)): 8 (72.7) n (%) | Ae0-24, Mean (CV) ([10]; 300 mg, Day 1 (n = 2)): 20.37 (8.3) mg | Fe0-24, Mean (CV) ([10]; 300 mg, Day 1 (n = 2)): 6.79 (8.3) % | Ae0-24, Mean (CV) ([10]; 300 mg, Day 5 (n = 3)): 26.14 (14.6) mg | Fe0-24, Mean (CV) ([10]; 300 mg, Day 5 (n = 3)): 8.71 (14.6) % | Ae0-24, Mean (CV) ([10]; 450 mg, Day 5 (n = 5)): 30.81 (33.0) mg | Fe0-24, Mean (CV) ([10]; 450 mg, Day 5 (n = 5)): 6.85 (33.0) % | Ae0-24, Mean (CV) ([10]; 600 mg, Day 1 (n = 1)): 31.96 mg | Fe0-24, Mean (CV) ([10]; 600 mg, Day 1 (n = 1)): 5.33% | Ae0-24, Mean (CV) ([10]; 600 mg, Day 5 (n = 4)): 51.82 (14.8) mg | Fe0-24, Mean (CV) ([10]; 600 mg, Day 5 (n = 4)): 8.64 (14.8) % | tolerability in cSSSI studies ([11]; Phase 2 (219 subjects) and terminated Phase 3 (143 subjects)): well-tolerated | efficacy in cSSSI studies ([11]; versus comparator linezolid): efficacy similar to an established comparator (linezolid)
